The experiment concerns the target Gastrin/cholecystokinin type B receptor (Cavia porcellus). The experiment is described as follows: In vitro binding affinity against Cholecystokinin type B receptor in guinea pig brain membranes.

By IC50 is commonly meant the midpoint of a concentration-inhibition curve. High values mean weaker potency in that assay, low ones greater potency in that assay. As to `CCCC[C@H](NC(=O)[C@H](Cc1ccc(OS(=O)(=O)O)cc1)NC(=O)OC(C)(C)C)C(=O)NCC(=O)N[C@H](Cc1c[nH]c2ccccc12)C(=O)N[C@@H](CCCC)C(=O)N[C@@H](CC(=O)O)C(=O)NCCc1ccccc1` [(S)-3-{(S)-2-[(R)-2-(2-{(S)-2-[(S)-2-tert-Butoxycarbonylamino-3-(4-sulfooxy-phenyl)-propionylamino]-hexanoylamino}-acetylamino)-3-(1H-indol-3-yl)-propionylamino]-hexanoylamino}-N-phenethyl-succinamic acid], the IC50 was determined as 1 µM.

(Values after BindingDB's records for doi:10.1016/S0960-894X(00)80679-4 (1993).)
